# Results as given in patent US6262073A, “Pharmaceutical methods of use of 5-substituted and 5,5 disubstituted-3,4-dihydroxy-2(5H)-furanones” (Oxis International Inc., priority 2000, dated 2001).
# Columns and labels:
# [1] = system: platelet function; details: cited from earlier work
# [2] = system: LTB4 production; details: stimulated macrophages; read-out: Inhibition of LTB4 production IC50; cited from earlier work
# [3] = system: PGE2 production; details: stimulated macrophages; read-out: Inhibition of PGE2 production IC50; cited from earlier work
# [4] = system: platelet aggregation; details: read-out: AA-induced platelet aggregation (AAIPA) IC50; cited from earlier work
# [5] = system: NF-κB; details: cited from earlier work
# [6] = system: NF-κB; test: NF-κB nuclear membrane translocation, EMSA, LPS-treated NR8383 cells; type: cell-based; details: Rattus norvegicus; 10,000 nM; LPS 1 μg/ml; NR8383 cells; 6 hours
# Procedure: Experiments measuring test agents effect on NF-κB nuclear membrane translocation were performed with NR8383 cells, which are transformed rat alveolar macrophages. […] In addition, some compounds were tested at doses of 10 and 30 μM. Untreated control cells and cells treated with LPS alone were tested in each experiment. Cells were harvested 6 hours after treatment. Nuclear proteins were extracted, frozen and quantified using the Bradford assay. Electrophoretic mobility shift assays (EMSA) were subsequently analyzed using a radiolabeled NF-κB probe. Nuclear proteins were reacted with the radiolabeled probe, run on a 5% polyacrylamide gel, and subjected to autoradiography. Specificity of protein binding for the NF-κB binding site was assayed by cold and nonspecific competition using the LPS treated sample in each experiment. All EMSA were duplicated at least once to verify results. Laser densitometry of NF-κB bands was done on autoradiographs to quantify NF-κB binding activity.
compound,measurement,setting,value
"O=C1OC(c2ccc(Cl)cc2)C(O)=C1O (stereo not drawn) [CHTA, 4-(4-chlorophenyl)-2-hydroxytetronic acid]",Inhibition of platelet function,[1],"inhibits platelet function by a similar mechanism, involving arachidonic acid release"
"CCCCC/C=C\C/C=C\C/C=C\C/C=C\CC[C@@H]1OC(=O)C(O)=C1O [(S)-3,4-dihydroxy-5[(all Z)-3,6,9,12-octadecatraenyl]-2 (5H)-furanone]",IC50,[2],20 µM
same,IC50,[3],20 µM
same,IC50,[4],< 10 µM
"S=C(S)N1CCCC1 [Pyrrolidone dithiocarbamate (PDTC), Pyrrolidone dithiocarbamate]",Inhibition of H2O2 and extracellular cytokine-induced activation of NF-κB,[5],inhibit both the H2 O2 and extracellular cytokine-induced activation of NF-κB in a concentration dependent manner
same,inhibition at 10 µM,[6],50%
